PubChem BioAssay AID2305 (GlaxoSmithKline (GSK), 2010)
“And” between values parts separate entries of the source, which are not always exact repeats. Identical values can stand only once.

Test system: P. falciparum 3D7 growth, pLDH absorbance
Test: blood-stage malaria parasite growth potency – strain 3D7, dose response (AID 2305)

Structure (SMILES)	IC50
O=C(/C=C/c1cccc(C(F)(F)F)c1)NCCCCCN1CCN(C(=O)Nc2ccc(Cl)c(Cl)c2)CC1	930 nM
CNc1ccc(CNCc2ccc(-c3ccc(-c4nc5ccc(C(F)(F)F)cc5[nH]4)s3)cc2)cc1	180 nM
Clc1cccc(CNC2CCN(CC3CCCCC3)CC2)c1	910 nM
CC(=O)c1ccc(O)c(CC(O)CO)c1 (centres undefined)	720 nM
CCC(C)(C)c1ccc(OCC(O)CN2CCCCC2)c(C(C)(C)CC)c1 (centres undefined)	1300 nM
CC1CCCCN1CCCNC(=O)c1cccc(-c2cc3cc(Cl)c(Cl)cc3[nH]2)c1 (centres undefined)	880 nM
CC(C)(C)OC(=O)N1CCN(c2ccccc2NC(=O)c2cccc(C(F)(F)F)c2Oc2ccc(F)cc2)CC1	860 nM
FC(F)(F)c1ccc2nc(-c3ccc(-c4ccc(CNCc5ccccc5)cc4)cc3)[nH]c2c1	140 nM
Fc1ccc2c(NN=Cc3ccccc3)ccnc2c1	740 nM
O=C(/C=C/c1ccc(Cl)cc1)NC1CCC(CN2CCC(c3c[nH]c4ccccc34)CC2)CC1 (centres undefined)	800 nM and 730 nM
O=C1CSc2ccc(CNC3CCN(CCc4c(Cl)cnc5ccc(F)cc45)CC3)nc2N1	430 nM
COc1ccc(CN2CCN(Cc3cc(Cl)ccc3O)CC2CCO)c(C)c1C (centres undefined)	1490 nM
O=C(NCCCCN1CCC(c2ccc3ccccc3c2)CC1)c1ccc(NC(=O)c2ccc(Cl)cc2)cc1	230 nM
COc1cc(COc2c(C)nc(N)nc2N)cc(OC)c1OC	330 nM
CCC(C(=O)Nc1ccccc1)n1nc(-c2ccc(C)c(S(=O)(=O)N3CCCCC3)c2)ccc1=O (centres undefined)	1090 nM
CC(C)(C)c1ccc(CNC(=O)c2cc(CNC3CCNCC3)ccc2O)cc1	710 nM
O=C(O)Cc1ccc(-c2c[nH]c3ncc(-c4cccc5ncccc45)cc23)cc1	850 nM
CC[C@@]1(O)C(=O)OCc2c1cc1n(c2=O)Cc2c-1nc1cc3c(cc1c2CN1CCOCC1)OCO3	960 nM
Cc1cccc(N2C(N)=NC(N)=NC2(C)C)c1C	760 nM
CC(C)c1cccc(OCC2CCN(c3ncc(C(=O)NC4CC4)cc3Cl)CC2)c1	680 nM
N#Cc1cncc(-c2nc3c(N4CCCC(N)C4)cccc3n2CCNCc2ccccc2)c1 (centres undefined)	770 nM
O=C(O[C@H]1CN[C@H](C#Cc2cc3c(Nc4ccc(OCc5cccc(F)c5)c(Cl)c4)ncnc3s2)C1)N1CCCC1	710 nM
Cc1cc2nc(-c3cc(-c4cccc(NS(C)(=O)=O)c4)cnc3N)[nH]c2cc1C	670 nM
Cc1cc2ccc(CNCCc3ccccc3Br)cc2nc1N	510 nM
CN(CCCNCc1ccc2ccccc2c1)CCCNCc1ccc2ccccc2c1	390 nM

Structure (SMILES)	IC50
c1cc(Cc2ccc(Nc3c4ccccc4nc4ccccc34)cc2)cc(Nc2c3ccccc3nc3ccccc23)c1	140 nM
COc1ccc(Cl)cc1N1CCN(CCCNC(=O)c2ccc(-c3nc4cc(Cl)c(C)cc4[nH]3)s2)CC1	780 nM
CC(C)c1ccc(-c2nc3ncc(Cl)cc3[nH]2)cc1	860 nM
CC(C)NCc1cc(Nc2ccnc3cc(Cl)ccc23)ccc1O	20 nM
N#Cc1cc(C(=O)c2cc(Cl)ccc2O)cn(-c2cccc(C(F)(F)F)c2)c1=O	1130 nM
CC(C)COc1ccc(C(O)C(CN2CCCCC2)c2ccccc2)cc1 (centres undefined)	920 nM
Cc1cc(C(=O)N[C@H]2CCN(Cc3ccc(OCCCN(C)C)cc3)C2)ccc1Br	900 nM
COc1cc2nc(N(C)CC3COc4ccccc4O3)nc(N)c2cc1OC (centres undefined)	1550 nM
COc1cc2c(cc1C(F)(F)F)N(C(=O)Nc1cc(F)cc(-c3cncnc3)c1)CC2	500 nM
O=c1c(NCCCN(Cc2ccc(F)cc2)c2ccccn2)c(NCc2ccncc2)c1=O	150 nM
CC(=O)Oc1cc(C)ccc1C1CCN(CCCCNC(=O)c2ccc(NC(=O)c3ccc(Cl)cc3)cc2)CC1	720 nM
COc1ccc(-c2cccc(NC(=O)c3cccc(Cl)c3)c2)cc1CN1CCCC1	730 nM
CS(=O)(=O)c1ccc(CNCc2ccc(-c3cccc(-c4nc5ccccc5[nH]4)c3)cc2)cc1	330 nM
Cc1ccccc1CNC(=O)Nc1cccc(-c2csc(N=C(N)N)n2)c1	700 nM
COc1cccc(C2C(C(=O)Nc3ccccc3)=C(C)N=c3s/c(=C\c4ccc(O)cc4)c(=O)n32)c1 (centres undefined)	580 nM
O=C(N[C@H]1CCN(CCc2ccc(O[C@H]3CCNC3)c(F)c2)C1)c1ccc(Cl)c(Cl)c1	1190 nM
CC(C)N1CCN(C(CN2CCN(CCCOc3ccccc3-c3ccccc3)CC2)c2ccc(F)cc2)CC1 (centres undefined)	790 nM
CC(C)(C)c1ccc(NC(=O)c2ccc(CN3CCCN(Cc4cccc(O)c4)CC3)cc2)cc1	670 nM
Cc1cccc2[nH]c(-c3ccc(-c4ccc(NC(=O)NCc5ccccc5)cc4)s3)nc12	770 nM
CCC(CC)CN1C(=O)C(c2ccccc2)(c2ccccc2)N=C1N	970 nM
c1ccc(CN2CCC(NCc3ccccc3-c3ccc(CNCc4ccc5c(c4)OCO5)cc3)CC2)cc1	330 nM
CC1(C)N=C(N)N=C(N)N1OCc1cc2ccccc2cc1CON1C(N)=NC(N)=NC1(C)C	130 nM
CCCC(C)NC(=O)[C@H](Cc1ccccc1)NC(=O)c1ccc(O)c(-c2ccc(OC)cc2)c1 (some centres undefined)	1240 nM
Cn1nc(-c2cccc(CNCCc3cccs3)c2)c2cnc(NC3CCCC3)nc21	1890 nM
Cn1c(=O)n(C)c2cc(CNCCNc3ccnc4cc(Cl)ccc34)ccc21	140 nM

Structure (SMILES)	IC50
Nc1nc(N)c2c(ccc3c2ccn3CCCC(F)(F)F)n1	100 nM
CCN1C(=O)N(CCC(C)C)C2(CCN(Cc3ccc(OC)cc3O)CC2)C1=O	870 nM
CCCCNC(=O)[C@H](CC1CCCCC1)NC(=O)c1ccc(O)c(-c2ccc(OC)cc2)c1	920 nM
Cc1ccc(/C=C/C(=O)NCCCCCN2CCN(C(=O)Nc3ccc(Cl)c(C(F)(F)F)c3)CC2)cc1	1110 nM
CN1CCCC1CCNc1ncc2c(-c3ccc(NC(=O)Nc4cc(C(F)(F)F)ccc4F)c(F)c3)nn(C)c2n1 (centres undefined)	290 nM
CC(C)(C)NCC(O)COc1ccc(Cl)cc1C1=NNC(=O)CC1 (centres undefined)	150 nM
Cn1ccnc1CNC(=O)c1ccc(-c2cccc(-c3nc4ccc(C(F)(F)F)cc4[nH]3)c2)cc1	720 nM
CCN(CC)CCOC(=O)c1ccc(NC(=O)c2cc(-c3ccc(C)cc3)nc3ccccc23)cc1	780 nM
COc1ccc(Br)cc1/C=C/C(=O)Nc1cccc(C2CCCN(C)C2)c1 (centres undefined)	890 nM
O=[N+]([O-])c1ccccc1C=NNc1ccnc2ccc(C(F)(F)F)cc12	710 nM
Cn1nc(C(F)(F)F)c(-c2ccc(Br)cc2)c1NC(=O)Nc1ccc(F)cc1F	790 nM
Cc1noc(C)c1-c1cccc(CNCc2ccc(-c3cccc(-c4nc5ccccc5[nH]4)c3)cc2)c1	570 nM
CCCC(C)NC(=O)[C@H]1CNCCN1C(=O)CCCc1ccccc1 (some centres undefined)	190 nM
Cc1cccc2[nH]c(-c3ccc(-c4cccc(CNCCCNS(C)(=O)=O)c4)cc3)nc12	1220 nM
COc1ccc(-c2nc3c4cc(I)ccc4c4ccccc4c3[nH]2)cc1	1100 nM
CCOc1ccc(CCC(=O)O)cc1OCC	1030 nM
COc1ccc(Nc2ncc3c(-c4cccc(NC(=O)Cc5ccc(F)cc5)c4)c[nH]c3n2)cc1OC	590 nM
N#Cc1ccc2c(c1)CN(CCC1CCC(NC(=O)c3cc4cnccc4[nH]3)CC1)CC2 (centres undefined)	800 nM
Cc1ccc(O)cc1Nc1ccnc2cc(-c3ccccc3)ccc12	1070 nM
COc1ccc(CN2CCC2=O)c(OC)c1	120 nM
COc1cccc(-c2ccc3c(-c4ccc(F)cc4)cnc(N)c3c2)c1	810 nM
N=C(N)c1ccc(Oc2ccc(C(=N)N)cc2)cc1	320 nM
CCCc1cc(Cc2cnc(N)nc2N)ccc1OCCCCCC(=O)O	580 nM
COCCOc1cccc(CN2CCC(c3cc4nc(C)cc(C(F)(F)F)n4n3)C2)c1 (centres undefined)	1330 nM
COCCN(C)CCCOc1cc2c(cc1OC)ncn2-c1cc(OCc2ccccc2C(F)(F)F)c(C(N)=O)s1	710 nM

Structure (SMILES)	IC50
O=S(=O)(NCCN1CCCC1)c1cccc(-c2cccc(CNCc3ccsc3)c2)c1	870 nM
O=C(/C=C/c1ccc(Cl)c(Cl)c1)N1CCC(NCc2ccc3[nH]ccc3c2)CC1	1020 nM
COC(=O)CN(C(=O)/C=C/c1ccc(Cl)c(Cl)c1)C1CCC(CN2CCC(c3c[nH]c4ccccc34)CC2)CC1 (centres undefined)	510 nM
CC(C)(C)C(C)(C)Cc1ccc(O)c(CN2CCN(c3ccccc3)CC2)c1	600 nM
O=C(Nc1ccccc1)N(Cc1ccccc1-c1cccc(CNC2CCCC2)c1)C1CCN(Cc2ccccc2)CC1	170 nM
CN(C)CCCOc1ccc(CCCCc2ccc(Cl)cc2C(=O)c2ccccc2)cc1	1030 nM
O=c1[nH]ccc2nc(N[C@@H]3CCNC3)nc(Nc3ccc4c(c3)S(=O)(=O)CC4)c12	380 nM
COc1cccc(-c2ccc3c(-c4cccc(NC(C)=O)c4)cnc(N)c3c2)c1	110 nM
Cc1cc2[nH]c(-c3ccc(C(=O)NCCCN4CCN(c5cccc(Cl)c5)CC4)cc3)nc2cc1Cl	770 nM
Cc1cc(NN=Cc2ccc(F)cc2)c2ccc(F)cc2n1	950 nM
NC[C@H](CC1CCCCC1)NC(=O)c1ccc(-c2ccnc3[nH]ccc23)s1	950 nM
Cc1c(F)cc(C(=O)NC2CC2)cc1-c1ccc2c(c1)c(C)nn2S(=O)(=O)c1cccs1	940 nM
CCOc1ccc2ccccc2c1C(=O)Nc1cc(C)nn1-c1nc(C)cc(=O)[nH]1	1010 nM
CCN(CC)CCN(Cc1ccc(-c2ccc(C(F)(F)F)cc2)cc1)C(=O)Cn1cc(CCCc2cccc(F)c2F)c(=O)c2ccccc21	1060 nM
CC(C)c1ccc(NC(=O)c2ccc(C(=O)NC3CCN(Cc4ccccc4)CC3)cc2)cc1	980 nM
CCCCCCCN1[C@@H]2CC[C@H]1CC(CCOc1ccnc3ccc(OC)cc13)C2 (some centres undefined)	390 nM
N#Cc1ccc(-c2ccc(C(=O)NCCCCN3CCC(c4ccc5c(c4OCC(N)=O)CCCC5)CC3)cc2)cc1	980 nM
O=C(/C=C/c1ccc(Cl)c(Cl)c1)NCCCCCN1CCC(NC(=O)c2cc(Cl)ccc2F)CC1	1160 nM
O=C(NC1CCN(CCC[C@]2(c3ccc(Cl)c(Cl)c3)CCCN(C(=O)c3ccccc3)C2)CC1)c1ccc(F)cc1	880 nM
COc1cc(Nc2ncnc3cc(OC)c(OC)cc23)cc([N+](=O)[O-])c1	810 nM
Clc1cc(Nc2ccnc3ccc(Br)cc23)ccc1Oc1ccc(Cl)c2ccccc12	630 nM
COc1ccc(C(=O)[C@H]2C[C@@H]2CN(C)CCC(O)c2ccc(Cl)c(Cl)c2)cc1 (some centres undefined)	870 nM
Cc1cccc2[nH]c(-c3ccc(-c4ccc(NC(=O)Nc5ccc(F)c(F)c5F)cc4)cc3)nc12	270 nM
CC(C)Cc1ccc(N2CCN(CCCCNC(=O)c3ccc(NC(=O)c4cc(C(F)(F)F)cc(C(F)(F)F)c4)cc3)CC2)cc1	180 nM
